Patent publication US20250326771A1, “PIPERAZINE DERIVATIVES USEFUL IN HIV THERAPY” (VIIV HEALTHCARE COMPANY, priority 2022, published 2025)
pIC50: −log10 of the molar value.

Tests used:
XIAP-BIR3 = XIAP-BIR3 (Homo sapiens (Human), UniProt P98170); assay: BIR binding assay (FRET competition), XIAP BIR3
Experimental: (§1) The BIR domain binding assays are FRET based competition assays that utilize His-tagged versions of each of the BIR2 and BIR3 domains from cIAP1, cIAP2, and XIAP (each domain assayed separately) each at a custom optimal concentration and a probe, 200 nM SMAC/DIABLO peptide […] labelled with AlexaFluor647 (part #crb 1110326h, Discovery Peptides). The assay is conducted in 50 mM HEPES, […], 1 mM CHAPS, 5% Glycerol, 1 mM DTT, in dI water with a final pH of 7.4 and final volume of 20 uL. Final protein domain concentrations are: 50 nM cIAP1-BIR3 (Part #APT-11-370 Reaction Biology), 100 nM XIAP-BIR3 (Part #APT-11-351 Reaction Biology), 200 nM XIAP-BIR2 (Part #APT-11-470 Reaction Biology), 325 nM cIAP2-BIR2 (Part #APT-11-489 Reaction Biology), 50 nM cIAP2-BIR3 (Part #APT-11-372 Reaction Biology), 325 nM cIAP1-BIR2 (Part #APT-11-487 Reaction Biology). Compounds were plated using a HP Tecan D300 printer in a final total volume of 202 nl and DMSO concentration normalized across the 15-point, 3-fold dilution series. Peptide and probe were prepared at 2× relative to the concentrations above in binding buffer, 10 uL added to the prepared compound plates, and incubated for 60 minutes. LANCE Eu-W1024 (part #AD0401 Perkin Elmer #, vendor) was prepared at 2× concentration in binding buffer for final concentration of 2 nM, 10 uL added to each well, and plates incubated for 30 minutes. Plates were read on an ENVISION multifunction plate reader with […] laser excitation to obtain the 615 nm/665 nm emission ratio as indicative of probe:protein proximity. Data was analyzed using GraphPad PRISM and curves fit using log(inhibitor) vs. response—Variable slope (four […] method to obtain IC50 and pIC50 values.

cIAP2-BIR3 = cIAP2-BIR3 (Homo sapiens (Human), UniProt Q13489); assay: BIR binding assay (FRET competition), cIAP2 BIR3
Sequence of cIAP2-BIR3 (Q13489 238-349): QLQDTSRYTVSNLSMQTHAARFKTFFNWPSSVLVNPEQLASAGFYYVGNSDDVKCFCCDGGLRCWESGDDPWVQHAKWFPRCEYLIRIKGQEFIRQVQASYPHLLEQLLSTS
Experimental: as §1

cIAP1-BIR3 = cIAP1-BIR3 (Homo sapiens (Human), UniProt Q13490); assay: BIR binding assay (FRET competition), cIAP1 BIR3
Sequence of cIAP1-BIR3 (Q13490 253-363): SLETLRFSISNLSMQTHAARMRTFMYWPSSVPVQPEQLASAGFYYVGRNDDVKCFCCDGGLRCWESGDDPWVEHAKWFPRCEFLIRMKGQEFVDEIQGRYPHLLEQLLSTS
Experimental: as §1

[1] = system: Jurkat HIV-luciferase clones; assay: Jurkat latency reversal assay; type: cell-based; conditions: Homo sapiens, 48 h; Jurkat latency reversal assay potency; read-out: Jurkat pEC50 (converted)
Experimental: Jurkat HIV-luciferase clones were maintained in RPMI medium 1640 (Gibco by Life Technologies) containing 10% (vol/vol) fetal bovine serum (SAFC/Sigma-Aldrich) and 25 units/mL penicillin, 25 units/mL streptomycin (Gibco by Life Technologies), and were split 1:4 every 3 to 4 days to maintain a cell density of ˜0.3 to 1 million cells/mL. The Jurkat clones were maintained with the addition of 500 nM EFV in the medium. Three Jurkat cell clones (C16, 115, and N6), each harboring one or two integrated HIV proviruses expressing the luciferase reporter gene, were added at equal amounts for a total of 5,000 cells per well to 384-well plates containing compound titrations. Dose-response testing was performed on compounds dissolved in dimethyl sulfoxide (DMSO; Fisher Scientific, Merelbeke, Belgium) dispensed in duplicate serial 3-fold, 14-point titrations using a D300e Digital Droplet Dispenser (Hewlett-Packard) to give final assay concentrations of 10 μM to […] in 50 μL of medium at 0.5% DMSO (vol/vol) final concentration. Cells and compound were incubated at 37° C. for 48 hours, unless otherwise indicated, followed by the addition of 20 μL of Steady-Glo® Luciferase (Promega). Luminescence resulting from the induction of the virally expressed luciferase was measured using an EnVision 2102 Multilabel Plate Reader (Perkin Elmer). Dose-response relationships were analyzed with GraphPad PRISM 6 using a four-parameter logistic regression model to calculate the concentration of compound that gives half-maximal response (EC50) and the maximal percent activation compared to the vehicle control.

Sequence of XIAP-BIR3 (P98170 241-356): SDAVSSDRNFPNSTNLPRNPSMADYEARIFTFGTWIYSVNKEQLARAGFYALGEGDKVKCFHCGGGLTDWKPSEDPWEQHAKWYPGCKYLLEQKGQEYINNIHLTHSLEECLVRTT

| SMILES | pIC50 (XIAP-BIR3) | pIC50 (cIAP2-BIR3) | pIC50 (cIAP1-BIR3) | EC50 [1] |
| --- | --- | --- | --- | --- |
| C[C@@H]1CN(CC(=O)N2CC(C)(C)c3[nH]c(=O)c(Cc4ccc(F)cc4)cc32)[C@@H](CN2CCO[C@H](COc3ccc(C(C)(C)c4ccc(C(C)(C)c5ccc(OC[C@@H]6CN(C[C@H]7CN[C@H](C)CN7CC(=O)N7CC(C)(C)c8[nH]c(=O)c(Cc9ccc(F)cc9)cc87)CCO6)cc5)cc4)cc3)C2)CN1 [Example 62, 1,1′-(2,2′-((3R,3′R,6R,6′R)-(((2S,2'S)-((((1,4-phenylenebis(propane-2,2-diyl))bis(4,1-phenylene))bis(oxy))bis(methylene))bis(morpholine-2,4-diyl))bis(methylene))bis(3-methylpiperazine-6,1-diyl))bis(acetyl))bis(6-(4-fluorobenzyl)-3,3-dimethyl-1,2,3,4-tetrahydro-5H-pyrrolo[3,2-b]pyridin-5-one)] | 6.30 to 7.50 | 6.30 to 7.50 | 6.30 to 7.50 | 12.6 to 63.1 nM |
| C[C@@H]1CN(CC(=O)N2CC(C)(C)c3[nH]c(=O)c(Cc4ccc(F)cc4)cc32)[C@@H](CN2CCN(S(=O)(=O)c3ccc(Oc4ccc(S(=O)(=O)N5CCN(C[C@H]6CN[C@H](C)CN6CC(=O)N6CC(C)(C)c7[nH]c(=O)c(Cc8ccc(F)cc8)cc76)[C@H](C)C5)cc4)cc3)C[C@H]2C)CN1 [Example 30, 2,2′-((3R,3′R,6R,6′R)-(((2R,2′R)-(oxybis(4,1-phenylenesulfonyl))bis(2-methylpiperazine-4,1-diyl))bis(methylene))bis(3-methylpiperazine-6,1-diyl))bis(1-(6-(4-fluorobenzyl)-3,3-dimethyl-5-oxo-2,3,4,5-tetrahydro-1H-pyrrolo[3,2-b]pyridin-1-yl)ethan-1-one)] | 6.30 to 7.50 | 7.50 to 7.80 | 6.30 to 7.50 | 316 to 3310 nM |
| C[C@@H]1CN(CC(=O)N2CC(C)(C)c3[nH]c(=O)c(Cc4ccc(F)cc4)cc32)[C@@H](CN2CCO[C@H](COc3ccc(C(C)(C)c4cccc(C(C)(C)c5ccc(OC[C@@H]6CN(C[C@H]7CN[C@H](C)CN7CC(=O)N7CC(C)(C)c8[nH]c(=O)c(Cc9ccc(F)cc9)cc87)CCO6)cc5)c4)cc3)C2)CN1 (stereo in doubt) [Example 61, 1,1′-(2,2′-((3R,3′R,6R,6′R)-(((2S,2'S)-((((1,3-phenylenebis(propane-2,2-diyl))bis(4,1-phenylene))bis(oxy))bis(methylene))bis(morpholine-2,4-diyl))bis(methylene))bis(3-methylpiperazine-6,1-diyl))bis(acetyl))bis(6-(4-fluorobenzyl)-3,3-dimethyl-1,2,3,4-tetrahydro-5H-pyrrolo[3,2-b]pyridin-5-one)] | 6.30 to 7.50 | 6.30 to 7.50 | 6.30 to 7.50 | 12.6 to 63.1 nM |
| C[C@@H]1CN(CC(=O)N2CC(C)(C)c3[nH]c(=O)c(Cc4ccc(Cl)cc4Cl)cc32)[C@@H](CN2CCO[C@H](COc3cccc(OC[C@@H]4CN(C[C@H]5CN[C@H](C)CN5CC(=O)N5CC(C)(C)c6[nH]c(=O)c(Cc7ccc(Cl)cc7Cl)cc65)CCO4)c3)C2)CN1 [Compound 187] | 6.30 to 7.50 | 7.80 to 8.10 | 7.80 to 8.10 | 0.49 to 12.6 nM |
| C[C@@H]1CN(CC(=O)N2CC(C)(C)c3[nH]c(=O)c(Cc4ccc(F)cc4)cc32)[C@@H](CN2CCO[C@H](COc3ccc(-c4ccc(OC[C@@H]5CN(C[C@H]6CN[C@H](C)CN6CC(=O)N6CC(C)(C)c7[nH]c(=O)c(Cc8ccc(F)cc8)cc76)CCO5)cc4)cc3)C2)CN1 [Example 50, 1,1′-(2,2′-((3R,3′R,6R,6′R)-(((2S,2'S)—(([1,1′-biphenyl]-4,4′-diylbis(oxy))bis(methylene))bis(morpholine-2,4-diyl))bis(methylene))bis(3-methylpiperazine-6,1-diyl))bis(acetyl))bis(6-(4-fluorobenzyl)-3,3-dimethyl-1,2,3,4-tetrahydro-5H-pyrrolo[3,2-b]pyridin-5-one)] | 8.10 to 8.86 | 8.10 to 8.86 | 8.10 to 8.86 | 0.49 to 12.6 nM |
| COc1cc(Cl)ccc1Cc1cc2c([nH]c1=O)C(C)(C)CN2C(=O)CN1C[C@@H](C)NC[C@@H]1CN1CCO[C@H](C(=O)NCc2ccc(CNC(=O)[C@@H]3CN(C[C@H]4CN[C@H](C)CN4CC(=O)N4CC(C)(C)c5[nH]c(=O)c(Cc6ccc(Cl)cc6OC)cc54)CCO3)cc2)C1 [Compound 169, (2S,2′S)-N,N′-(1,4-phenylenebis(methylene)) bis(4-(((2R,5R)-1-(2-(6-(4-chloro-2-methoxybenzyl)-3,3-dimethyl-5-oxo-2,3,4,5-tetrahydro-1H-pyrrolo[3,2-b]pyridin-1-yl)-2-oxoethyl)-5-methylpiperazin-2-yl)methyl)morpholine-2-carboxamide)] | 6.30 to 7.50 | 8.10 to 8.86 | 7.80 to 8.10 | 12.6 to 63.1 nM |
| C[C@@H]1CN(CC(=O)N2CC(C)(C)c3[nH]c(=O)c(Cc4ccc(F)cc4)cc32)[C@@H](CN2CCC(CCCOc3cccc(OCCCC4CCN(C[C@H]5CN[C@H](C)CN5CC(=O)N5CC(C)(C)c6[nH]c(=O)c(Cc7ccc(F)cc7)cc65)CC4)c3)CC2)CN1 [Example 109, 1,1′-(2,2′-((3R,3′R,6R,6′R)-((((1,3-phenylenebis(oxy))bis(propane-3,1-diyl))bis(piperidine-4,1-diyl))bis(methylene))bis(3-methylpiperazine-6,1-diyl))bis(acetyl))bis(6-(4-fluorobenzyl)-3,3-dimethyl-1,2,3,4-tetrahydro-5H-pyrrolo[3,2-b]pyridin-5-one)] |  | 7.80 to 8.10 | 7.50 to 7.80 | 12.6 to 63.1 nM |
| C[C@@H]1CN(CC(=O)N2CC(C)(C)c3[nH]c(=O)c(Cc4ccc(F)cc4)cc32)[C@@H](CN2CCO[C@H](COc3ccc(CCc4ccc(OC[C@@H]5CN(C[C@H]6CN[C@H](C)CN6CC(=O)N6CC(C)(C)c7[nH]c(=O)c(Cc8ccc(F)cc8)cc76)CCO5)cc4)cc3)C2)CN1 [Example 58, 1,1′-(2,2′-((3R,3′R,6R,6′R)-(((2S,2'S)-(((ethane-1,2-diylbis(4,1-phenylene))bis(oxy))bis(methylene))bis(morpholine-2,4-diyl))bis(methylene))bis(3-methylpiperazine-6,1-diyl))bis(acetyl))bis(6-(4-fluorobenzyl)-3,3-dimethyl-1,2,3,4-tetrahydro-5H-pyrrolo[3,2-b]pyridin-5-one)] | 7.50 to 7.80 | 7.80 to 8.10 | 7.50 to 7.80 | 12.6 to 63.1 nM |
| C[C@@H]1CN(CC(=O)N2CC(C)(C)c3[nH]c(=O)c(Cc4ccc(F)cc4)cc32)[C@@H](CN2CCO[C@H](COc3ccc(Cc4ccc(OC[C@@H]5CN(C[C@H]6CN[C@H](C)CN6CC(=O)N6CC(C)(C)c7[nH]c(=O)c(Cc8ccc(F)cc8)cc76)CCO5)cc4)cc3)C2)CN1 [Example 53, 1,1′-(2,2′-((3R,3′R,6R,6′R)-(((2S,2'S)-(((methylenebis(4,1-phenylene))bis(oxy))bis(methylene))bis(morpholine-2,4-diyl))bis(methylene))bis(3-methylpiperazine-6,1-diyl))bis(acetyl))bis(6-(4-fluorobenzyl)-3,3-dimethyl-1,2,3,4-tetrahydro-5H-pyrrolo[3,2-b]pyridin-5-one)] | 6.30 to 7.50 | 6.30 to 7.50 | 6.30 to 7.50 | 12.6 to 63.1 nM |
